We go through 3 compounds from patent US20240316060A1, “LASER AND BCL-2 INHIBITORS COMBINATION TO TREAT SOLID TUMORS” (Board of Regents, The University of Texas System, priority 2023, published 2024).

The structures appear in SMILES notation.

This test relates to 3D spheroids. Put plainly: Annexin-V assay in 3D spheroids (flow-cytometry). In kind it is cell-based. The conditions noted are these: without laser. The text has this:
Annexin-V Assay in 3D Spheroids
Table 2 represents the flow-cytometry of solid tumors treated with various modalities including positive controls (DMSO and H2O2) compared with boron nitride/navitoclax formulations with and without laser excitation.
In turn, `C[S+](C)[O-]` [DMSO] yielded an Early apoptosis of 9.51%, a Late apoptosis of 5.23% and a Live of 85%.
The compound `CC1(C)CCC(c2ccc(Cl)cc2)=C(CN2CCN(c3ccc(C(=O)NS(=O)(=O)c4ccc(N[C@H](CCN5CCOCC5)CSc5ccccc5)c(S(=O)(=O)C(F)(F)F)c4)cc3)CC2)C1` [Free NAVI, Navitoclax] yielded an Early apoptosis of 32.04%, a Late apoptosis of 9.64% and a Live of 58%.
The compound `OO` [H2O2] had an Early apoptosis of 58.37%, a Late apoptosis of 40.12% and a Live of 1%.
